Measured values from ChEMBL document CHEMBL2390874, “Synthesis, antibacterial activity and cytotoxicity of new fused pyrazolo[1,5-a]pyrimidine and pyrazolo[5,1-c][1,2,4]triazine derivatives from new 5-aminopyrazoles” (Eur J Med Chem, 2013).
Converted amounts (≈) assume the structure as drawn. The source made the active and inactive calls. The calls are words filed in the database; no cut-off is given here.

Columns and labels:
Serratia marcescens [1] = assay: Antibacterial activity against Serratia marcescens ATCC 13880 assessed as growth inhibition at 10 ug after 24 hrs by agar diffusion method; assay type: functional; details: ATCC 13880, 24 h, read-out: DIZ
Pseudomonas aeruginosa [2] = assay: Antibacterial activity against Pseudomonas aeruginosa ATCC 10145 assessed as growth inhibition at 10 ug after 24 hrs by agar diffusion method; assay type: functional; details: ATCC 10145, 24 h, read-out: DIZ
Escherichia coli [3] = assay: Antibacterial activity against Escherichia coli ATCC 10536 assessed as growth inhibition at 10 ug after 24 hrs by agar diffusion method; assay type: functional; details: ATCC 10536, 24 h, read-out: DIZ
Escherichia coli [4] = assay: Antibacterial activity against Escherichia coli ATCC 10536 assessed as growth inhibition at 1 mg/ml after 24 hrs by agar diffusion method; assay type: functional; details: ATCC 10536, 24 h, read-out: DIZ
[5] = system: Staphylococcus epidermidis; assay: Antibacterial activity against Staphylococcus epidermidis ATCC 12228 assessed as growth inhibition at 1 mg/ml after 24 hrs by agar diffusion method; assay type: functional, organism-based
Staphylococcus aureus [6] = assay: Antibacterial activity against Staphylococcus aureus ATCC 25923 assessed as growth inhibition by broth dilution method; assay type: functional
Staphylococcus aureus [7] = assay: Antibacterial activity against Staphylococcus aureus ATCC 25923 assessed as growth inhibition at 1 mg/ml after 24 hrs by agar diffusion method; assay type: functional; details: ATCC 25923, 24 h, read-out: DIZ
Salmonella typhimurium = assay: Antibacterial activity against Salmonella typhimurium ATCC 51812 assessed as growth inhibition at 1 mg/ml after 24 hrs by agar diffusion method; assay type: functional, organism-based; details: Salmonella enterica subsp. enterica serovar Typhimurium
[8] = Selectivity index, ratio of CC50 for african green monkey vero cells to MIC for Staphylococcus aureus ATCC 25923; assay type: functional
Bacillus subtilis [9] = assay: Bactericidal activity against Bacillus subtilis ATCC 11774 by broth dilution method; assay type: functional
Escherichia coli [10] = assay: Antibacterial activity against Escherichia coli ATCC 10536 assessed as growth inhibition by broth dilution method; assay type: functional
[11] = Selectivity index, ratio of CC50 for african green monkey vero cells to MIC for Escherichia coli ATCC 10536; assay type: functional
Serratia marcescens [12] = assay: Bactericidal activity against Serratia marcescens ATCC 13880 by broth dilution method; assay type: functional
Bacillus subtilis [13] = assay: Antibacterial activity against Bacillus subtilis ATCC 11774 assessed as growth inhibition by broth dilution method; assay type: functional
Staphylococcus aureus [14] = assay: Bactericidal activity against Staphylococcus aureus ATCC 25923 by broth dilution method; assay type: functional
Staphylococcus aureus [15] = assay: Antibacterial activity against methicillin-resistant Staphylococcus aureus ATCC 43300 assessed as growth inhibition at 1 mg/ml after 24 hrs by agar diffusion method; assay type: functional, organism-based
Enterococcus faecalis = assay: Antibacterial activity against Enterococcus faecalis ATCC 14506 assessed as growth inhibition at 1 mg/ml after 24 hrs by agar diffusion method; assay type: functional, organism-based
[16] = Selectivity index, ratio of CC50 for african green monkey vero cells to MIC for Serratia marcescens ATCC 13880; assay type: functional
Serratia marcescens [17] = assay: Antibacterial activity against Serratia marcescens ATCC 13880 assessed as growth inhibition by broth dilution method; assay type: functional
[18] = Cytotoxicity against african green monkey vero cells by MTT assay; assay type: cell-based; details: chlorocebus sabaeus
Serratia marcescens [19] = assay: Antibacterial activity against Serratia marcescens ATCC 13880 assessed as growth inhibition at 1 mg/ml after 24 hrs by agar diffusion method; assay type: functional; details: ATCC 13880, 24 h, read-out: DIZ
Pseudomonas aeruginosa [20] = assay: Antibacterial activity against Pseudomonas aeruginosa ATCC 10145 assessed as growth inhibition at 1 mg/ml after 24 hrs by agar diffusion method; assay type: functional; details: ATCC 10145, 24 h, read-out: DIZ
Escherichia coli [21] = assay: Bactericidal activity against Escherichia coli ATCC 10536 by broth dilution method; assay type: functional
Bacillus subtilis [22] = assay: Antibacterial activity against Bacillus subtilis ATCC 11774 assessed as growth inhibition at 1 mg/ml after 24 hrs by agar diffusion method; assay type: functional; details: ATCC 11774, 24 h, read-out: DIZ
[23] = Selectivity index, ratio of CC50 for african green monkey vero cells to MIC for Bacillus subtilis ATCC 11774; assay type: functional
Pseudomonas aeruginosa [24] = assay: Antibacterial activity against Pseudomonas aeruginosa ATCC 10145 assessed as growth inhibition by broth dilution method; assay type: functional
[25] = Selectivity index, ratio of CC50 for african green monkey vero cells to MIC for Pseudomonas aeruginosa ATCC 10145; assay type: functional
Pseudomonas aeruginosa [26] = assay: Bactericidal activity against Pseudomonas aeruginosa ATCC 10145 by broth dilution method; assay type: functional
Bacillus subtilis [27] = assay: Antibacterial activity against Bacillus subtilis ATCC 11774 assessed as growth inhibition after 24 hrs by agar diffusion method; assay type: functional
Staphylococcus aureus [28] = assay: Antibacterial activity against Staphylococcus aureus ATCC 25923 assessed as growth inhibition after 24 hrs by agar diffusion method; assay type: functional

SMILES | zone of inhibition at 1000 µg/mL (Escherichia coli [4]) | growth inhibition (GI) [5] | MIC (Staphylococcus aureus [6]) | zone of inhibition at 1000 µg/mL (Staphylococcus aureus [7]) | growth inhibition (GI) (Salmonella typhimurium) | Selectivity Index [8] | MBC (Bacillus subtilis [9]) | MIC (Escherichia coli [10]) | Selectivity Index [11] | MIC (Bacillus subtilis [13]) | MBC (Staphylococcus aureus [14]) | growth inhibition (GI) (Staphylococcus aureus [15]) | growth inhibition (GI) (Enterococcus faecalis) | CC50 [18] | zone of inhibition at 1000 µg/mL (Serratia marcescens [19]) | zone of inhibition at 1000 µg/mL (Pseudomonas aeruginosa [20]) | MBC (Escherichia coli [21]) | zone of inhibition at 1000 µg/mL (Bacillus subtilis [22]) | Selectivity Index [23] | MIC (Pseudomonas aeruginosa [24]) | also measured
CN[C@@H]1[C@H](O[C@H]2[C@H](O[C@H]3[C@H](O)[C@@H](O)[C@H](N=C(N)N)[C@@H](O)[C@@H]3N=C(N)N)O[C@@H](C)[C@]2(O)C=O)O[C@@H](CO)[C@H](O)[C@H]1O [STREPTOMYCIN] |  |  |  |  |  |  |  |  |  |  |  |  |  |  |  |  |  |  |  |  | zone of inhibition at 10 µg/disc (Serratia marcescens [1]): 20 mm; zone of inhibition at 10 µg/disc (Pseudomonas aeruginosa [2]): 14 mm; zone of inhibition at 10 µg/disc (Escherichia coli [3]): 13 mm
Cc1cc(C)n2nc(N3CCCCC3)c(C#N)c2n1 | 11 mm | inactive | 16000 µg/mL (≈ 62.7 mM) | 12 mm | inactive | 0.08 | 16000 µg/mL (≈ 62.7 mM) | 16000 µg/mL (≈ 62.7 mM) | 0.08 | 16000 µg/mL (≈ 62.7 mM) | 16000 µg/mL (≈ 62.7 mM) | inactive | inactive | 1250 µg/mL (≈ 4.9 mM) | 7 mm | 6 mm | 16000 µg/mL (≈ 62.7 mM) | 10 mm | 0.08 |  | MBC (Serratia marcescens [12]): 16000 µg/mL (≈ 62.7 mM); Selectivity Index [16]: 0.08; MIC (Serratia marcescens [17]): 16000 µg/mL (≈ 62.7 mM)
N#Cc1c(N2CCCC2)n[nH]c1N | 9 mm | inactive | 16000 µg/mL (≈ 90.3 mM) | 10 mm | inactive | 0.31 | 8000 µg/mL (≈ 45.1 mM) | 8000 µg/mL (≈ 45.1 mM) | 0.31 | 8000 µg/mL (≈ 45.1 mM) | 16000 µg/mL (≈ 90.3 mM) | inactive | inactive | 2500 µg/mL (≈ 14.1 mM) | 7 mm | 7 mm | 16000 µg/mL (≈ 90.3 mM) | 9 mm | 0.31 | 8000 µg/mL (≈ 45.1 mM) | Selectivity Index [25]: 0.31; MBC (Serratia marcescens [12]): 8000 µg/mL (≈ 45.1 mM); Selectivity Index [16]: 0.31; MIC (Serratia marcescens [17]): 8000 µg/mL (≈ 45.1 mM); MBC (Pseudomonas aeruginosa [26]): 16000 µg/mL (≈ 90.3 mM)
Cc1cc(O)n2nc(N3CCOCC3)c(C#N)c2n1 | 10 mm | inactive | 16000 µg/mL (≈ 61.7 mM) | 9 mm | inactive | 0 | 16000 µg/mL (≈ 61.7 mM) | 16000 µg/mL (≈ 61.7 mM) | 0 | 8000 µg/mL (≈ 30.9 mM) | 16000 µg/mL (≈ 61.7 mM) | inactive | inactive | 63 µg/mL (≈ 0.243 mM) | 6 mm | 7 mm | > 16000 µg/mL | 9 mm | 0.01 | 8000 µg/mL (≈ 30.9 mM) | Selectivity Index [25]: 0.01; MBC (Pseudomonas aeruginosa [26]): > 16000 µg/mL
O=C(N[C@H](CO)[C@H](O)c1ccc([N+](=O)[O-])cc1)C(Cl)Cl [CHLORAMPHENICOL] |  |  |  |  |  |  |  |  |  |  |  |  |  |  |  |  |  |  |  |  | diameter of the inhibition zone (DIZ) (Bacillus subtilis [27]): 25 mm; diameter of the inhibition zone (DIZ) (Staphylococcus aureus [28]): 25 mm
N#Cc1c(N2CCOCC2)n[nH]c1N | 11 mm | inactive | 16000 µg/mL (≈ 82.8 mM) | 11 mm | inactive | 0.29 | 16000 µg/mL (≈ 82.8 mM) | 8000 µg/mL (≈ 41.4 mM) | 0.29 | 16000 µg/mL (≈ 82.8 mM) | > 16000 µg/mL | inactive | inactive | 2340 µg/mL (≈ 12.1 mM) | 6 mm | 7 mm | 16000 µg/mL (≈ 82.8 mM) | 6 mm | 0.15 | 8000 µg/mL (≈ 41.4 mM) | Selectivity Index [25]: 0.29; MBC (Serratia marcescens [12]): 8000 µg/mL (≈ 41.4 mM); Selectivity Index [16]: 0.29; MIC (Serratia marcescens [17]): 8000 µg/mL (≈ 41.4 mM); MBC (Pseudomonas aeruginosa [26]): 16000 µg/mL (≈ 82.8 mM)
N#Cc1c(N2CCCCC2)n[nH]c1N | 15 mm | inactive | 16000 µg/mL (≈ 83.7 mM) | 15 mm | inactive | 0.14 | 8000 µg/mL (≈ 41.8 mM) | 4000 µg/mL (≈ 20.9 mM) | 0.14 | 4000 µg/mL (≈ 20.9 mM) | 16000 µg/mL (≈ 83.7 mM) | inactive | inactive | 550 µg/mL (≈ 2.88 mM) | 6 mm | 7 mm | 8000 µg/mL (≈ 41.8 mM) | 9 mm | 0.14 | 8000 µg/mL (≈ 41.8 mM) | Selectivity Index [25]: 0.07; MBC (Serratia marcescens [12]): 4000 µg/mL (≈ 20.9 mM); Selectivity Index [16]: 0.28; MIC (Serratia marcescens [17]): 2000 µg/mL (≈ 10.5 mM); MBC (Pseudomonas aeruginosa [26]): 8000 µg/mL (≈ 41.8 mM)
Cc1ccc(C)n1-c1[nH]nc(N2CCCCC2)c1C#N | 7 mm | inactive | 8000 µg/mL (≈ 29.7 mM) | 12 mm | inactive | 0.18 | 8000 µg/mL (≈ 29.7 mM) | 8000 µg/mL (≈ 29.7 mM) | 0.18 | 4000 µg/mL (≈ 14.9 mM) | 8000 µg/mL (≈ 29.7 mM) | inactive | inactive | 1400 µg/mL (≈ 5.2 mM) | 6 mm | 7 mm | 8000 µg/mL (≈ 29.7 mM) | 16 mm | 0.35 | 4000 µg/mL (≈ 14.9 mM) | Selectivity Index [25]: 0.35; MBC (Pseudomonas aeruginosa [26]): 8000 µg/mL (≈ 29.7 mM)
CSc1c(C#N)c(N)nc2c(C#N)c(N3CCCCC3)nn12 | 10 mm | inactive | 16000 µg/mL (≈ 51.1 mM) | 11 mm | inactive | 0.11 | 16000 µg/mL (≈ 51.1 mM) | 16000 µg/mL (≈ 51.1 mM) | 0.11 | 16000 µg/mL (≈ 51.1 mM) | 16000 µg/mL (≈ 51.1 mM) | inactive | inactive | 1750 µg/mL (≈ 5.58 mM) | 7 mm | 7 mm | 16000 µg/mL (≈ 51.1 mM) | 10 mm | 0.11 | 8000 µg/mL (≈ 25.5 mM) | Selectivity Index [25]: 0.22; MBC (Serratia marcescens [12]): 16000 µg/mL (≈ 51.1 mM); Selectivity Index [16]: 0.11; MIC (Serratia marcescens [17]): 16000 µg/mL (≈ 51.1 mM); MBC (Pseudomonas aeruginosa [26]): 16000 µg/mL (≈ 51.1 mM)
